Laboratory results: US8518953B2, “Aminopyrimidines useful as inhibitors of protein kinases” (Vertex Pharmaceuticals Incorporated, priority 2007, dated 2013)

What was measured:
CRMP2 = CRMP2 phosphorylation assay; format: cell-based, rat; conditions: E16 hippocampal neurons treated for 7 days
Method: GSK-3 phosphorylation regulates CRMP2 which is involved in the control of axon outgrowth and branching (Yoshimura et al. 2005 Cell, Kim et al. 2006 Neuron). Phosphorylation of CRMP2 by GSK-3 reduces CRMP2 binding to microtubules and thereby reduces axon elongation and branching. Conversely, inhibition of GSK-3, especially at levels that selectively affect TYR residue autophosphorylation, enhances these phenotypes. Compounds are tested in E16 rat hippocampal or cortical neurons to determine the ability to increase the level of axonal branching. 1 mg/ml stock of PDL is diluted into 100 μg/ml in DI water. The glass coverslips are coated for at least 1 hour at 37° C. prior to doing the dissection. PDL is aspirated and the plates are rinsed with PBS and air-dried in hood. Cortical or hippocampal lobes are combined with 9 mL of Base media (Neurobasal+Pen/Strep) and put on ice. 1 mL of 10× trypsin solution is added and the mixture is swirled gently. The tissue is then digested via incubation in a 37° C. waterbath for 20 minutes. After 20 minutes, 10 μl/ml DNase (100 μL DNase) is added and the mixture is incubated for another 5 minutes. The cells are spun at 1000 rpm for 1 minute. The enzyme solution is then removed without removing any of the brain fragments sitting on the bottom. […] The cells are counted in a hemacytometer and seeded at 50,000 cells/well in a 12 well plate. […]

β-catenin = β-catenin induction in brains of MCAO rats (Western blot); format: in vivo, rat; conditions: all doses, at the termination of the study
Method: Hypotonic Lysis Buffer consists of 10 mM HEPES, 10 mM KCL, 1.5 mM MgCl2, 1.0 mM EDTA, 1.0 mM DTT, 1× Roche protease inhibitor cocktail, and 1.0 mM AEBSF Calbiochem protease inhibitor cocktail (cat#539134). All concentrations are final and are diluted in water. First, hypotonic lysis buffer is added to the tissue at 5×'s weight. The tissue is then broken up on ice using the end of a syringe plunger. Next, the samples are freeze-thawed five times. The lysates are then transferred to ultracentrifuge tubes and spun at 100,000 g for 35 min at 4° C. The supernatants are then collected and an aliquot is taken to measure protein with the Pierce BCA protein assay kit (cat#23225), using BSA standard curve. The remaining protein lysates are diluted 1:1 with laemmli sample buffer containing β-mercaptoethanol. The protein concentration is then normalized. The samples are boiled for 5 min at 95° C. followed by a spin at 14,000 rpm in a mini-centrifuge for 1 min. The samples are then snap frozen with dry ice and stored at −20° C. The samples are first loaded on 10% Tris-glycine gel (10 uL/well). […] Induction of β-catenin is determined by comparison of the density of protein band in samples obtained from compound treated animals with that of vehicle treated animals. […] Lysates were analyzed by Western blot (see Example 3) and probed for GSK-3α/β pTYR levels. […]

In the case of `Cc1nc(-c2ccccc2Cl)nc(Nc2n[nH]c3ncc(F)cc23)c1C` [Compound I-1, N-(2-(2-chlorophenyl)-5,6-dimethylpyrimidin-4-yl)-5-fluoro-1H-pyrazolo[3,4-b]pyridin-3-amine], the “Inhibition of GSK-3 phosphorylation of substrate CRMP-2” value (CRMP2) is reported as “correlated with inhibition of GSK-3 pTYR” and the “induction of β-catenin in the brain” value (β-catenin) is reported as “no induction of β-catenin”.
